Drawing on ChEMBL document CHEMBL1145761 (Bioorg Med Chem Lett, 2003), this text covers Ki for eleven molecules.

The structures appear in SMILES notation.

Sequence of Neuronal acetylcholine receptor; alpha4/beta2 (P09483 whole entry): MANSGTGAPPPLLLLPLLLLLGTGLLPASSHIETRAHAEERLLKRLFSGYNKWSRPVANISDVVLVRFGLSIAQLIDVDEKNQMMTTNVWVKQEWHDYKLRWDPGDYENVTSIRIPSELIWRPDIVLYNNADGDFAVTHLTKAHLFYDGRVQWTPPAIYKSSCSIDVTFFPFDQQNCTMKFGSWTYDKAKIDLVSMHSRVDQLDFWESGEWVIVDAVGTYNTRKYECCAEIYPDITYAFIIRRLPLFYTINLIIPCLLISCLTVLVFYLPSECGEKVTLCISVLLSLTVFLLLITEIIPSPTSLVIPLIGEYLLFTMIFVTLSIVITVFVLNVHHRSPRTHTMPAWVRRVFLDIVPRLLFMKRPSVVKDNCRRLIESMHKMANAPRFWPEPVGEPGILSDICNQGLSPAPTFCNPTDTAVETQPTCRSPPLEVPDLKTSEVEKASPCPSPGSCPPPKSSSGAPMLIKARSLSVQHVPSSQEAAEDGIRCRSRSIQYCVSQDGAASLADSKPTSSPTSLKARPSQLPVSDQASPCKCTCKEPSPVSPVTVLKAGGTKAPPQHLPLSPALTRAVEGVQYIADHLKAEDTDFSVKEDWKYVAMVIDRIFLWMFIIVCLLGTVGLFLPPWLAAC
Sequence of Neuronal acetylcholine receptor; alpha4/beta2 (P12390 whole entry): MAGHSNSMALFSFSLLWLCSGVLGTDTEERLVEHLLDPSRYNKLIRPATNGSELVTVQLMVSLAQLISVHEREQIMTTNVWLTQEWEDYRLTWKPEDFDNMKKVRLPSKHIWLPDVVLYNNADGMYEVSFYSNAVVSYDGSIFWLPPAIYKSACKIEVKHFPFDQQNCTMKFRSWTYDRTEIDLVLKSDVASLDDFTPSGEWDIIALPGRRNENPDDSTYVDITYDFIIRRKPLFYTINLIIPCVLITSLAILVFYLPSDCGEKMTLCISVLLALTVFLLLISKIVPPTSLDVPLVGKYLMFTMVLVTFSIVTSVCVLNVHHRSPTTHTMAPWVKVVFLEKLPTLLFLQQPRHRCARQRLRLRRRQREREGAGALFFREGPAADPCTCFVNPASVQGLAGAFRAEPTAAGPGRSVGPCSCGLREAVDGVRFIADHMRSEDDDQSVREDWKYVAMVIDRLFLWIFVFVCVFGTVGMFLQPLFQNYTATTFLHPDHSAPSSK

This assay addresses Neuronal acetylcholine receptor; alpha4/beta2 (Rattus norvegicus, UniProt P09483+P12390). Put plainly: Affinity at alpha4-beta2 nACh receptors in rat brain (minus cerebellum) homogenates. Format: tissue-based.
Broadly, the Ki is the dissociation constant of the complex between target and ligand, obtained from inhibition or displacement. With `CN1CCCC1c1cnc2ccccc2c1` (stereo unspecified), the Ki is 11 nM.

In turn, `CN1CCN=C1Cc1cnc2ccccc2c1` returned a Ki of 38 nM.

Take `c1ccc(CN2CCCC2c2cccnc2)cc1` (stereo unspecified): the Ki came to 360 nM.

For the molecule `COc1ccc(CC2=NCCN2C)cn1`, affinity was put at a Ki of 46 nM.

The molecule `CN1CCN=C1Cc1ccc(Br)nc1` came in with a Ki of 7.3 nM.

Take `CN1CCN=C1Cc1ccc(Cl)nc1`: affinity was put at a Ki of 3.3 nM.

For the molecule `CN1CCCC1c1ccc(-c2ccccc2)nc1` (stereo unspecified), the Ki amounted to 9440 nM.

In turn, `CN1CCN=C1Cc1ccc(-c2ccccc2)nc1` showed an inhibitory constant (Ki) of 3260 nM.

For `CN1CCCC1c1ccc(Br)nc1` (stereo unspecified), the Ki stood at 0.5 nM.

In turn, `CN1CCCC1c1ccc(Cl)nc1` (stereo unspecified) had a Ki of 0.6 nM.

`c1cncc(C2=NCCC2)c1` [MYOSMINE] returned a Ki of 3300 nM.
